Measured values from ChEMBL document CHEMBL5390204, “Persephacin Is a Broad-Spectrum Antifungal Aureobasidin Metabolite That Overcomes Intrinsic Resistance in Aspergillus fumigatus” (J Nat Prod, 2023).
Values after ≈ are worked out from the molar mass of the structure shown. Numbered stars: 1 amine (or outer) side, 2 acyl side, 3 side chain; on linkers, the order of the positions; unused ones are H or OH. Square brackets hold non-standard residues; d marks the D form. Peptide text beside a SMILES is read from it. X1 = CC[C@@H](C)[C@@H](O[*:1])C(=O)[*:2]; NMeVal(β-OH) = CN[C@H](C(=O)O)C(C)(C)O; NMeF = CN[C@@H](Cc1ccccc1)C(=O)O; aIle = CC[C@@H](C)[C@H](N)C(=O)O; NMeV = CN[C@H](C(=O)O)C(C)C

Assays:
Candida parapsilosis [1] = assay: Antifungal activity against Candida parapsilosis ATCC 22019 (Y-12969) assessed as reduction in fungal growth incubated for 48 hrs by microplate reader analysis; format: functional; settings: Lodderomyces parapsilosis
Candida albicans [2] = assay: Antifungal activity against Candida albicans ATCC 10231 assessed as reduction in fungal growth incubated for 48 hrs by microplate reader analysis; format: functional
Candida albicans [3] = assay: Antifungal activity against Candida albicans SC5314 assessed as reduction in fungal growth incubated for 48 hrs by microplate reader analysis; format: functional
Pichia kudriavzevii [4] = assay: Antifungal activity against Candida krusei ATCC 6258 (Y-7179) assessed as reduction in fungal growth incubated for 48 hrs by microplate reader analysis; format: functional
Candida tropicalis [5] = assay: Antifungal activity against Candida tropicalis ATCC750 (Y-12699) assessed as reduction in fungal growth incubated for 48 hrs by microplate reader analysis; format: functional
Cryptococcus neoformans [6] = assay: Antifungal activity against Cryptococcus neoformans H99 assessed as reduction in fungal growth incubated for 48 hrs by microplate reader analysis; format: functional
Aspergillus fumigatus [7] = assay: Antifungal activity against Aspergillus fumigatus MYA 3627 assessed as reduction in fungal growth incubated for 48 hrs by microplate reader analysis; format: functional
Aspergillus fumigatus [8] = assay: Antifungal activity against Aspergillus fumigatus NRRL6113 assessed as reduction in fungal growth incubated for 48 hrs by microplate reader analysis; format: functional
Aspergillus fumigatus [9] = assay: Antifungal activity against Aspergillus fumigatus NRRL5109 assessed as reduction in fungal growth incubated for 48 hrs by microplate reader analysis; format: functional
Aspergillus flavus [10] = assay: Antifungal activity against Aspergillus flavus NRRL485 assessed as reduction in fungal growth incubated for 48 hrs by microplate reader analysis; format: functional
Aspergillus niger [11] = assay: Antifungal activity against Aspergillus niger FGSC A732 assessed as reduction in fungal growth incubated for 48 hrs by microplate reader analysis; format: functional
Aspergillus terreus [12] = assay: Antifungal activity against Aspergillus terreus 191A6 assessed as reduction in fungal growth incubated for 48 hrs by microplate reader analysis; format: functional
Curvularia lunata [13] = assay: Antifungal activity against Curvularia lunata NRRL6409 assessed as reduction in fungal growth incubated for 48 hrs by microplate reader analysis; format: functional
Rhizopus arrhizus [14] = assay: Antifungal activity against Rhizopus oryzae FGSC 9543 assessed as reduction in fungal growth incubated for 48 hrs by microplate reader analysis; format: functional
Mucor circinelloides [15] = assay: Antifungal activity against Mucor circinelloides 235C7 assessed as reduction in fungal growth incubated for 48 hrs by microplate reader analysis; format: functional
Fusarium solani [16] = assay: Antifungal activity against Fusarium solani 243G2 assessed as reduction in fungal growth incubated for 48 hrs by microplate reader analysis; format: functional
Paecilomyces lilacinus [17] = assay: Antifungal activity against Paecilomyces lilacinus 165E10 assessed as reduction in fungal growth incubated for 48 hrs by microplate reader analysis; format: functional; settings: Purpureocillium lilacinum
Hamigera insecticola [18] = assay: Antifungal activity against Hamigera insecticola NRRL35442 assessed as reduction in fungal growth incubated for 48 hrs by microplate reader analysis; format: functional
Candida albicans [19] = assay: Antifungal activity against Candida albicans SC5314 assessed as reduction in fungal viability incubated for 48 hrs by microplate reader analysis; format: functional
Candida albicans [20] = assay: Antifungal activity against Candida albicans ATCC 10231 assessed as reduction in fungal viability incubated for 48 hrs by microplate reader analysis; format: functional
Candida parapsilosis [21] = assay: Antifungal activity against Candida parapsilosis ATCC 22019 (Y-12969) assessed as reduction in fungal viability incubated for 48 hrs by microplate reader analysis; format: functional
Candida tropicalis [22] = assay: Antifungal activity against Candida tropicalis ATCC750 (Y-12699) assessed as reduction in fungal viability incubated for 48 hrs by microplate reader analysis; format: functional
Pichia kudriavzevii [23] = assay: Antifungal activity against Candida krusei ATCC 6258 (Y-7179) assessed as reduction in fungal viability incubated for 48 hrs by microplate reader analysis; format: functional
Cryptococcus neoformans [24] = assay: Antifungal activity against Cryptococcus neoformans H99 assessed as reduction in fungal viability incubated for 48 hrs by microplate reader analysis; format: functional
Aspergillus fumigatus [25] = assay: Antifungal activity against Aspergillus fumigatus MYA 3627 assessed as reduction in fungal viability incubated for 48 hrs by microplate reader analysis; format: functional
Aspergillus fumigatus [26] = assay: Antifungal activity against Aspergillus fumigatus NRRL6113 assessed as reduction in fungal viability incubated for 48 hrs by microplate reader analysis; format: functional
Aspergillus fumigatus [27] = assay: Antifungal activity against Aspergillus fumigatus NRRL5109 assessed as reduction in fungal viability incubated for 48 hrs by microplate reader analysis; format: functional
Aspergillus flavus [28] = assay: Antifungal activity against Aspergillus flavus NRRL485 assessed as reduction in fungal viability incubated for 48 hrs by microplate reader analysis; format: functional
Aspergillus niger [29] = assay: Antifungal activity against Aspergillus niger FGSC A732 assessed as reduction in fungal viability incubated for 48 hrs by microplate reader analysis; format: functional
Aspergillus terreus [30] = assay: Antifungal activity against Aspergillus terreus 191A6 assessed as reduction in fungal viability incubated for 48 hrs by microplate reader analysis; format: functional
Curvularia lunata [31] = assay: Antifungal activity against Curvularia lunata NRRL6409 assessed as reduction in fungal viability incubated for 48 hrs by microplate reader analysis; format: functional
Rhizopus arrhizus [32] = assay: Antifungal activity against Rhizopus oryzae FGSC 9543 assessed as reduction in fungal viability incubated for 48 hrs by microplate reader analysis; format: functional
Mucor circinelloides [33] = assay: Antifungal activity against Mucor circinelloides 235C7 assessed as reduction in fungal viability incubated for 48 hrs by microplate reader analysis; format: functional
Fusarium solani [34] = assay: Antifungal activity against Fusarium solani 243G2 assessed as reduction in fungal viability incubated for 48 hrs by microplate reader analysis; format: functional
Paecilomyces lilacinus [35] = assay: Antifungal activity against Paecilomyces lilacinus 165E10 assessed as reduction in fungal viability incubated for 48 hrs by microplate reader analysis; format: functional, Purpureocillium lilacinum
Hamigera insecticola [36] = assay: Antifungal activity against Hamigera insecticola NRRL35442 assessed as reduction in fungal viability incubated for 48 hrs by microplate reader analysis; format: functional

Compound: CC[C@@H](C)[C@@H]1NC(=O)[C@@H]2CCCN2C(=O)[C@H](Cc2ccccc2)N(C)C(=O)[C@H](Cc2ccccc2)NC(=O)[C@H](C(C)C)N(C)C(=O)[C@@H]([C@H](C)CC)OC(=O)[C@H](C(C)(C)O)N(C)C(=O)[C@H](CC(C)C)NC(=O)[C@H](C(C)C)N(C)C1=O [AUREOBASIDIN A] (cyclo(F[NMeF]P[aIle][NMeV]L[NMeVal(β-OH)][X1][NMeV]))
- MFC (Candida parapsilosis [1]): 2.5 µM (≈ 2.75 µg/mL)
- MIC80 (Candida parapsilosis [1]): 1.3 µM (≈ 1.43 µg/mL)
- MFC (Candida albicans [2]): 2.5 µM (≈ 2.75 µg/mL)
- MIC80 (Candida albicans [2]): 0.6 µM (≈ 0.661 µg/mL)
- MFC (Candida albicans [3]): 0.6 µM (≈ 0.661 µg/mL)
- MIC80 (Candida albicans [3]): 0.3 µM (≈ 0.33 µg/mL)
- MFC (Pichia kudriavzevii [4]): 2.5 µM (≈ 2.75 µg/mL)
- MIC80 (Pichia kudriavzevii [4]): 1.3 µM (≈ 1.43 µg/mL)
- MFC (Candida tropicalis [5]): 0.6 µM (≈ 0.661 µg/mL)
- MIC80 (Candida tropicalis [5]): 0.6 µM (≈ 0.661 µg/mL)
- MFC (Cryptococcus neoformans [6]): 2.5 µM (≈ 2.75 µg/mL)
- MIC80 (Cryptococcus neoformans [6]): 2.5 µM (≈ 2.75 µg/mL)
- MFC (Aspergillus fumigatus [7]): > 10 µM
- MIC80 (Aspergillus fumigatus [7]): > 10 µM
- MFC (Aspergillus fumigatus [8]): > 10 µM
- MIC80 (Aspergillus fumigatus [8]): > 10 µM
- MFC (Aspergillus fumigatus [9]): > 10 µM
- MIC80 (Aspergillus fumigatus [9]): > 10 µM
- MFC (Aspergillus flavus [10]): > 10 µM
- MIC80 (Aspergillus flavus [10]): > 10 µM
- MFC (Aspergillus niger [11]): > 10 µM
- MIC80 (Aspergillus niger [11]): 5 µM (≈ 5.51 µg/mL)
- MFC (Aspergillus terreus [12]): > 10 µM
- MIC80 (Aspergillus terreus [12]): 2.5 µM (≈ 2.75 µg/mL)
- MFC (Curvularia lunata [13]): 1.3 µM (≈ 1.43 µg/mL)
- MIC80 (Curvularia lunata [13]): 0.6 µM (≈ 0.661 µg/mL)
- MFC (Rhizopus arrhizus [14]): > 10 µM
- MIC80 (Rhizopus arrhizus [14]): > 10 µM
- MFC (Mucor circinelloides [15]): > 10 µM
- MIC80 (Mucor circinelloides [15]): > 10 µM
- MFC (Fusarium solani [16]): > 10 µM
- MIC80 (Fusarium solani [16]): 5 µM (≈ 5.51 µg/mL)
- MFC (Paecilomyces lilacinus [17]): > 10 µM
- MIC80 (Paecilomyces lilacinus [17]): 5 µM (≈ 5.51 µg/mL)
- MFC (Hamigera insecticola [18]): > 10 µM
- MIC80 (Hamigera insecticola [18]): 0.6 µM (≈ 0.661 µg/mL)
- MFC<=99.9 (Candida albicans [19]): 0.6 µM (≈ 0.661 µg/mL)
- MFC<=99.9 (Candida albicans [20]): 2.5 µM (≈ 2.75 µg/mL)
- MFC<=99.9 (Candida parapsilosis [21]): 2.5 µM (≈ 2.75 µg/mL)
- MFC<=99.9 (Candida tropicalis [22]): 0.6 µM (≈ 0.661 µg/mL)
- MFC<=99.9 (Pichia kudriavzevii [23]): 2.5 µM (≈ 2.75 µg/mL)
- MFC<=99.9 (Cryptococcus neoformans [24]): 2.5 µM (≈ 2.75 µg/mL)
- MFC<=99.9 (Aspergillus fumigatus [25]): >10 µM
- MFC<=99.9 (Aspergillus fumigatus [26]): >10 µM
- MFC<=99.9 (Aspergillus fumigatus [27]): >10 µM
- MFC<=99.9 (Aspergillus flavus [28]): >10 µM
- MFC<=99.9 (Aspergillus niger [29]): >10 µM
- MFC<=99.9 (Aspergillus terreus [30]): >10 µM
- MFC<=99.9 (Curvularia lunata [31]): 1.3 µM (≈ 1.43 µg/mL)
- MFC<=99.9 (Rhizopus arrhizus [32]): >10 µM
- MFC<=99.9 (Mucor circinelloides [33]): >10 µM
- MFC<=99.9 (Fusarium solani [34]): >10 µM
- MFC<=99.9 (Paecilomyces lilacinus [35]): >10 µM
- MFC<=99.9 (Hamigera insecticola [36]): >10 µM
